According to paper PMC10741476, “The Allosteric Regulation of Β-Ureidopropionase Depends on Fine-Tuned Stability of Active-Site Loops and Subunit Interfaces” (Biomolecules, 2023):
Where two headings read alike, the source gives them in different places. Residues, ends and D or L forms follow the SMILES beside them.

T1: human β-ureidopropionase (HsβUP) (Homo sapiens, UniProt Q9UBR1)
T1 construct: gene UPB1
T1 sequence (Q9UBR1 1-384): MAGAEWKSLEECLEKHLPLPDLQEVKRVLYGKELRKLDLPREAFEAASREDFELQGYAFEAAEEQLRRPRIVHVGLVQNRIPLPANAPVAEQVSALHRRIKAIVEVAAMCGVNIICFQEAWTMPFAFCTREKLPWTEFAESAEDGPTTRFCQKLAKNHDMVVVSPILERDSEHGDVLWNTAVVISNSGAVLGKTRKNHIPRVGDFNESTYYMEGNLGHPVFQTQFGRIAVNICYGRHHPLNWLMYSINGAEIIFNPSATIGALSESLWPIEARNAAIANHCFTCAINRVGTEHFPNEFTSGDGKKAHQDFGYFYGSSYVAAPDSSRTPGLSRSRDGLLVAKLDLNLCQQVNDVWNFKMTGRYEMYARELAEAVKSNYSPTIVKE


Key:
[1] = target: T1, human β-ureidopropionase (HsβUP); assay: discontinuous OPA fluorescence assay of beta-alanine formation from NCβA; type: biochemical
Excerpt: discontinuous OPA fluorescence assay of beta-alanine formation from NCβA on human β-ureidopropionase (HsβUP)

[2] = substrate: NC(=O)NCCC(=O)O; assay: as above; type: biochemical, Homo sapiens; conditions: pH 6.5, 37 °C, 100 mM MES, 50 mM NaCl

Row | Ki [1] | Molecule | also measured
1 |  | NCC(=O)NCC(=O)O [glycyl-glycine] (H-Gly-Gly-OH) | Ki ([1]; pH 6.5, 37 °C, 100 mM MES, 50 mM NaCl, competitive mode assumed (data best fitted as non-competitive), substrate NCβA): 237 µM
2 | 2270 µM | CC(C)C(=O)O [isobutyric acid] | 
3 | 151 µM | CC(C)(N)C(=O)O [2-aminoisobutyric acid] | 
4 |  | human β-ureidopropionase (HsβUP) (Homo sapiens) (protein) MAGAEWKSLEECLEKHLPLPDLQEVKRVLYGKELRKLDLPREAFEAASREDFELQGYAFEAAEEQLRRPRIVHVGLVQNRIPLPANAPVAEQVSALHRRIKAIVEVAAMCGVNIICFQEAWTMPFAFCTREKLPWTEFAESAEDGPTTRFCQKLAKNHDMVVVSPILERDSEHGDVLWNTAVVISNSGAVLGKTRKNHIPRVGDFNESTYYMEGNLGHPVFQTQFGRIAVNICYGRHHPLNWLMYSINGAEIIFNPSATIGALSESLWPIEARNAAIANHCFTCAINRVGTEHFPNEFTSGDGKKAHQDFGYFYGSSYVAAPDSSRTPGLSRSRDGLLVAKLDLNLCQQVNDVWNFKMTGRYEMYARELAEAVKSNYSPTIVKE | Km [2]: 101.4 µM
